Measurements taken from US12491452B2, “Extraction method and composition obtained therefrom” (NATURALIA INGREDIENTS S.R.L., priority 2018, dated 2025).
Like-named read-outs stand apart in the source and are kept apart here.

How the values were obtained:
[1] = cited from earlier work
[2] = Stability of CBDA and CBD in inclusion complexes of Eletta Campana CS inflorescence and HP-β-CD in water, HPLC-UV; assay type: physicochemical; details: for cannabinoid concentration: HP-β-CD aqueous extract
Description: The official method reported in the German Pharmacopoeia of Cannabis Flos (https://www.MonographCannabisFlos.pdf) comprises three extraction and filtering cycles of 500 mg of inflorescence with 20, 12.5 and 12.5 mL of ethanol 96% respectively. The ethanol liquid phase was brought to a volume of 50 mL in a volumetric flask with clean 96% ethanol. Said extract was filtered on a regenerated cellulose filter with pore diameter 0.45 μm. A 1 mL portion was diluted with 9 mL of 96% ethanol for chromatographic analysis. For each cannabinoid a calibration curve was constructed for the quantification thereof within the extracts and in the aqueous formulations of the inclusion complexes with the inflorescence. The calibration curve was constructed with certified standards (Cerilliant Cannabinoid Reference Standards, Cerilliant Corporation, Texas, USA) in a concentration range of 0.25-1.00 μg/mL. The titrations were performed following the method published by Citti et al. [Citti et al., Journal of Pharmaceutical and Biomedical Analysis 2016, 128, 201-209] with the use of high-performance liquid chromatography coupled with a UV detector (HPLC-UV).
After filtering, both the solutions were then transferred to an amber-colored closed container. One container was kept at ambient temperature (25° C.) in the dark and the other in the refrigerator at 8° C. The concentration of the cannabinoids, in the particular example of CBDA and CBD, was measured at different times to verify the stability thereof, analyzing a portion by HPLC-UV. […] The percentage CBDA concentration difference with reference to time 0 is indicated in brackets.

[3] = cited from earlier work; remark: listed apart in the source

## Randomly methylated β-Cyclodextrin
[1]
  Solubility in pure water (mg/ml) at approx. 25° C.: >500 mg/mL

## C=C(C)[C@@H]1CCC(C)=C[C@H]1c1c(O)cc(CCCCC)cc1O [CBD, 2-[(1R,6R)-3-methyl-6-(prop-1-en-2-yl)cyclohex-2-enyl]-5-pentylbenzene-1,3-diol, reference compound]
[2]; 8° C., 0 days
  cannabinoid concentration: 0.16 µg/mL
[2]; 8° C., 14 days
  cannabinoid concentration: 0.12 µg/mL
[2]; 8° C., 45 days
  cannabinoid concentration: 0.17 µg/mL
[2]; 8° C., 60 days
  cannabinoid concentration: 0.14 µg/mL
[2]; 8° C., 100 days
  cannabinoid concentration: 0.17 µg/mL
[2]; 25° C. in the dark, 0 days
  cannabinoid concentration: 0.14 µg/mL
[2]; 25° C. in the dark, 14 days
  cannabinoid concentration: 0.56 µg/mL
[2]; 25° C. in the dark, 45 days
  cannabinoid concentration: 0.78 µg/mL
[2]; 25° C. in the dark, 60 days
  cannabinoid concentration: 1.10 µg/mL
[2]; 25° C. in the dark, 100 days
  cannabinoid concentration: 2.93 µg/mL
[2]; formulation kept at 8° C., 100 days
  stability of the formulation (in words): remain surprisingly stable
[3]; infusion without CD, 25° C., period of 7 days
  drop of concentration in water: 60%
[3]; tisane without CD kept at 4° C., 7 days
  drop of concentration in water: 50%

## 2-hydroxypropyl-β-cyclodextrin
[1]
  Solubility in pure water (mg/ml) at approx. 25° C.: >600 mg/mL

## 2-Hydroxypropyl-γ-cyclodextrin
[1]
  Solubility in pure water (mg/ml) at approx. 25° C.: >500 mg/mL

## Sodium salt of β-CD sulfobutyl ether
[1]
  Solubility in pure water (mg/ml) at approx. 25° C.: >500 mg/mL

## C=C(C)[C@@H]1CCC(C)=C[C@H]1c1c(O)cc(CCCCC)c(C(=O)O)c1O [CBDA, 2,4-Dihydroxy-3-[(1R,6R)-3-methyl-6-(1-methylethenyl)-2-cyclohexen-1-yl]-6-pentylbenzoic acid]
[2]
  stability of the formulation (in words): loss (albeit very slow
[2]; 8° C., 14 days
  percentage CBDA concentration difference with reference to time 0: +1.8%
  cannabinoid concentration: 6.94 µg/mL
[2]; 8° C., 45 days
  percentage CBDA concentration difference with reference to time 0: +1.4%
  cannabinoid concentration: 6.91 µg/mL
[2]; 8° C., 60 days
  percentage CBDA concentration difference with reference to time 0: +0.6%
  cannabinoid concentration: 6.86 µg/mL
[2]; 8° C., 100 days
  percentage CBDA concentration difference with reference to time 0: +1.4%
  cannabinoid concentration: 6.91 µg/mL
[2]; 25° C., 14 days
  percentage CBDA concentration difference with reference to time 0: −9.9%
[2]; 25° C., 45 days
  percentage CBDA concentration difference with reference to time 0: −30.7%
[2]; 25° C., 60 days
  percentage CBDA concentration difference with reference to time 0: −47.6%
[2]; 25° C., 100 days
  percentage CBDA concentration difference with reference to time 0: −50.1%
[2]; 8° C., 0 days
  cannabinoid concentration: 6.81 µg/mL
[2]; 25° C. in the dark, 0 days
  cannabinoid concentration: 6.45 µg/mL
[2]; 25° C. in the dark, 14 days
  cannabinoid concentration: 5.81 µg/mL
[2]; 25° C. in the dark, 45 days
  cannabinoid concentration: 4.47 µg/mL
[2]; 25° C. in the dark, 60 days
  cannabinoid concentration: 3.38 µg/mL
[2]; 25° C. in the dark, 100 days
  cannabinoid concentration: 3.21 µg/mL
[3]; infusion without CD, both at 25° C. and at 4° C.
  time beyond which stability in water is not guaranteed: ≤ 14 days
